Assay results published in patent publication US20230165970A1, “COMPOSITIONS AND METHODS FOR THE TREATMENT OF BACTERIAL INFECTIONS” (priority 2017, published 2023).
Converted amounts (≈) assume the structure as drawn. Like-named read-outs stand apart in the source and are kept apart here. *1 amine or outer side, *2 acyl side, *3 side chain or, on linkers, in order; H or OH if unused. Where a SMILES comes first, the peptide text is derived from it. Bridges are numbered along the chain shown (N, C = ends). Roman numbers before positions name the chains, in order. [ ]: non-standard residue; d: D form. X6 = C#CCOCCOCCOCCOCCCN1C[C@@H](C(=O)[*:1])[C@H](C(=O)[*:2])C1; Nle = CCCC[C@H](N)C(=O)O; Dab = NCC[C@H](N)C(=O)O; azaGly = NNC(=O)O

Experiments:
A. baumannii AB5075 = assay: A. baumannii lung infection model, lung CFU burden (C57Bl/6J mice); assay type: in vivo, Acinetobacter baumannii; details: 24 h time point; conjugates 50 mpk IP at t=−12 h and t=+1 h; AZM 25 mpk SC once at t=+1 h; n=5
Protocol: A. baumannii AB5075 was grown to log-phase in LB at 37° C., 200 rpm shaking. Bacteria were washed once with PBS via centrifugation at 4,000 rpm. Bacteria were adjusted to desired concentration in PBS.
Prior to infection, 8-week-old female C57BI/6J mice (Jackson Labs) were anesthetized with 100 mg/kg ketamine and 10 mg/kg xylazine. Using an otoscope, mice were infected directly into the trachea. For CFU burden studies mice were infected with 2×10^7 CFU in 30 μL PBS. At 24 h post-infection mice were sacrificed by CO2 and both lung lobes were harvested. Lungs were homogenized with 1 mm silica beads in 1 mL PBS using a MagNA Lyser (Roche). Homogenization was carried out at 6,000 rpm for 60 s and chilled on ice for 60 s in-between runs. Lung homogenate was diluted in PBS ranging from 10^−1 to 10^−8, plated on LB plates and incubated at 37° C. overnight. The next day. CFU were enumerated and surviving CFU calculated relative to weight of the lung. […] Conjugates or hIgG1 (50 mpk) were administered intraperitoneally at t=−12 h pre-infection and t=+1 h post-infection. Azithromycin (Fresenius-Kabi) was administered subcutaneously once at t=+1 h post-infection. Efficacy of ADC conjugates (50 mpk) was determined upon intratracheal infection of A. baumannii AB5075. For CFU burden studies, mice (n=5 per group) were infected with 3×10^7 bacteria, sacrificed and lung CFU burden determined at 24 h time point.

Ec 2469 = assay type: cell-based, Escherichia coli
Outline: (§1)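 Twofold dilution series of each agent received bacterial cells from MHA plates (saline, ~0.1 OD600 nm), with RPMI B medium used for drug conjugates. Plates were shaken and held at 35° C overnight (16-20 h). LES431 was tested in presence and absence of 50% heat-inactivated fetal bovine serum.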

Ec 25922 = assay type: cell-based, Escherichia coli
Outline: as §1

Ec 25922 64X-1 (COL^R) = assay type: cell-based, Escherichia coli; details: media CA-MHB
Ec AR0349 (mcr-1, COL^R) = assay type: cell-based, Escherichia coli; details: media CA-MHB
Ab 19606 (COLhet^R) = assay type: cell-based, Acinetobacter baumannii; details: media CA-MHB
[1] = test system: Ab AB58705 (COL^R) IpxD, mut. (no LPS); assay type: cell-based, Acinetobacter baumannii; details: media CA-MHB
Ab 8990 (COL^R) = assay type: cell-based, Acinetobacter baumannii
Outline: as §1

Ab AB5075 = assay type: cell-based, Acinetobacter baumannii
Outline: as §1

Pa 27853 = assay type: cell-based, Pseudomonas aeruginosa
Outline: as §1

Pa LES431 = assay type: cell-based, Pseudomonas aeruginosa
Outline: as §1

Pa PAO1 = assay type: cell-based, Pseudomonas aeruginosa
Outline: as §1

Kp 10031 = assay type: cell-based, Klebsiella pneumoniae
Outline: as §1

Kp 43816 = assay type: cell-based, Klebsiella pneumoniae
Outline: as §1

Kp 6951 (COL^R) = assay type: cell-based, Klebsiella pneumoniae
Outline: as §1

Sa RN = assay type: cell-based
[2] = test system: Ec COL^R LPS: colistin-resistant (MCR-1) strain (AR0349); assay: Lethal mouse endotoxemia model (LD95 purified LPS IP); assay type: in vivo, C57BL/6J mice; details: (D) Endotoxemia (Ec COL^R LPS); 5 mg/kg IV, single, -1 hr; survival after three days
Protocol: Studies (B)-(D) shown in Table 22 summarizes the efficacy of compounds in lethal models of endotoxemia. In these models 6 week old C57I/6J immune competent mice (Jackson Laboratory) were challenged IP with purified lipopolysaccharide (LPS) in PBS at an LD95. For all studies, LPS was obtained from Sigma (catalog numbers in the table footnote) or were purified using a kit obtained from iNtRON Biotechnology Inc. (cat #17141). One hour prior to LPS challenge mice were dosed with test articles as indicated (Table 22). The results of these studies indicate that compounds are able to neutralize the lethal effects of LPS in a severe endotoxemia/sepsis model.
End point was survival after 3 days. Ec: E. coli 0111:B34, Sigma cat #L4130; Ab: Acinetobacter baumannii 5075; Kp: Klebsiella pneumonia 10, Sigma cat #L4268; Ng: Neisseria gonorrhoeae 19424; Ec 026:B86, Sigma cat #L2762; Pm: Proteus mirabilis, Sigma cat #SMB00704; Sm: Serratia marcescens, Sigma cat #L6016; Pa: Pseudomonas aeruginosa 10. […] Purified LPS used for all endotoxemia studies and if not denoted by a Sigma catalog number the LPS was purified in-house using an iNtRON #17141 purification kit. *Delayed death, at the time Fc only animals reached 100% mortality all Conjugate 41 mice were still alive.

E. coli 25922 = details: 3.0 mg/kg IP qd at T+1 hour; 72 hours after bacterial challenge; N=3
Protocol: In vivo screening of selected compounds was accomplished in an E. coli bacteremia model (N=3). Efficacy was assessed in an animal model of infection using CD-1 mice by evaluating bacteremia in immune competent mice challenged with 2× the LD95 of E. coli 25922 (dosed qd, intraperitoneally (IP) at T+1 hour, survival endpoint).
Colistin (COL) and Int-17 were dosed at 0.3 mg/kg and Int-41 was dosed at 3.0 mg/kg. Percent survival was determined 72 hours after bacterial challenge. Compounds with MICs against E. coli 25922 of less than 4 μg/ml were evaluated in the bacteremia model.
Int-115 and Int-118 were evaluated for potency in a lethal model of bacteremia. […] Test articles were dissolved in 1× PBS and injected IV at a dose volume of 10 ml/kg one hour following bacterial challenge. Animals were monitored twice daily and mortality scored over three days.
CD-1 mice were used for bacteremia, C57BL/6J mice for endotoxemia. The endpoint was survival after three days for both models.

CC[C@H]1OC(=O)[C@H](C)[C@@H](O[C@H]2C[C@@](C)(OC)[C@@H](O)[C@H](C)O2)[C@H](C)[C@@H](O[C@@H]2O[C@H](C)C[C@H](N(C)C)[C@H]2O)[C@](C)(O)C[C@@H](C)CN(C)[C@H](C)[C@@H](O)[C@]1(C)O [azithromycin (AZM), azithromycin, reference compound]
reduction of lung CFU burden (A. baumannii AB5075): 0.76 logs

C#CCOCCOCCOCCOCCCN1C[C@@H](C(=O)N[C@@H](CCCC)C(=O)N[C@@H](CCN)C(=O)N[C@H](C(=O)NNC(=O)N[C@H]2CCNC(=O)[C@H]([C@@H](C)O)NC(=O)[C@H](CCN)NC(=O)[C@H](CCN)NC(=O)[C@H](CC(C)C)NC(=O)[C@@H](Cc3ccccc3)NC(=O)[C@H](CCN)NC2=O)[C@@H](C)O)[C@H](C(=O)N[C@@H](CCCC)C(=O)N[C@@H](CCN)C(=O)N[C@H](C(=O)NNC(=O)N[C@H]2CCNC(=O)[C@H]([C@@H](C)O)NC(=O)[C@H](CCN)NC(=O)[C@H](CCN)NC(=O)[C@H](CC(C)C)NC(=O)[C@@H](Cc3ccccc3)NC(=O)[C@H](CCN)NC2=O)[C@@H](C)O)C1 [Int-122] (I: [Nle][Dab]T[azaGly][Dab][Dab][dF]L[Dab][Dab]T / II: [Nle][Dab]T[azaGly][Dab][Dab][dF]L[Dab][Dab]T; lactam I:5-I:C, II:5-II:C; linker I:N-II:N via X6)
MIC (Ec 2469; Ec 2469, media CA-MHB): 2 µg/mL (≈ 0.763 µM) | MIC (Ec 25922; Ec 25922 + FBS (50%, heat-inactivated), media CA-MHB): 0.25 µg/mL | MIC (Ec 25922; Ec 25922, media CA-MHB): 2 µg/mL (≈ 0.763 µM) | MIC (Ec 25922 64X-1 (COL^R)): 2 µg/mL (≈ 0.763 µM) | MIC (Ec AR0349 (mcr-1, COL^R)): 2 µg/mL (≈ 0.763 µM) | MIC (Ab 19606 (COLhet^R)): 2 µg/mL (≈ 0.763 µM) | MIC [1]: 2 µg/mL (≈ 0.763 µM) | MIC (Ab 8990 (COL^R); Ab 8990 (COL^R), media CA-MHB): >128 µg/mL | MIC (Ab AB5075; Ab AB5075, media CA-MHB): 2 µg/mL (≈ 0.763 µM) | MIC (Pa 27853; Pa 27853, media CA-MHB): 4 µg/mL (≈ 1.53 µM) | MIC (Pa LES431; Pa LES431 + FBS (50%, heat-inactivated), media CA-MHB): 8 µg/mL | MIC (Pa LES431; Pa LES431, media CA-MHB): 2 µg/mL (≈ 0.763 µM) | MIC (Pa PAO1; Pa PAO1, media CA-MHB): 4 µg/mL (≈ 1.53 µM) | MIC (Kp 10031; Kp 10031, media CA-MHB): 2 µg/mL (≈ 0.763 µM) | MIC (Kp 43816; Kp 43816, media CA-MHB): 2 µg/mL (≈ 0.763 µM) | MIC (Kp 6951 (COL^R); Kp 6951 (COL^R), media CA-MHB): 8 µg/mL (≈ 3.05 µM) | MIC (Sa RN): >128 µg/mL | % survival [2]: 80%

C#CCOCCOCCOCCOCCCNC(=O)CN(CC(=O)N[C@@H](CCCC)C(=O)N[C@@H](CCN)C(=O)N[C@H](C(=O)N[C@@H](CCN)C(=O)N[C@H]1CCNC(=O)[C@H]([C@@H](C)O)NC(=O)[C@H](CCN)NC(=O)[C@H](CCN)NC(=O)[C@H](CC(C)C)NC(=O)[C@@H](Cc2ccccc2)NC(=O)[C@H](CCN)NC1=O)[C@H](O)CCC)C(=C)N[C@@H](CCCC)C(=O)N[C@@H](CCN)C(=O)N[C@H](C(=O)N[C@@H](CCN)C(=O)N[C@H]1CCNC(=O)[C@H]([C@@H](C)O)NC(=O)[C@H](CCN)NC(=O)[C@H](CCN)NC(=O)[C@H](CC(C)C)NC(=O)[C@@H](Cc2ccccc2)NO[C@H](CCN)NC1=O)[C@H](O)CCC [Int-41]
MIC (Ec 2469): 2 µg/mL (≈ 0.724 µM) | MIC (Ec 25922): 4 µg/mL (≈ 1.45 µM) | MIC E. coli ATCC 25922, No serum (Ec 25922): 4 µg/mL (≈ 1.45 µM) | MIC E. coli ATCC 25922, Serum (Ec 25922): 1 µg/mL (≈ 0.362 µM) | MIC (Ec 25922 64X-1 (COL^R)): 4 µg/mL (≈ 1.45 µM) | MIC (Ec AR0349 (mcr-1, COL^R)): 4 µg/mL (≈ 1.45 µM) | MIC (Ab 19606 (COLhet^R)): 4 µg/mL (≈ 1.45 µM) | MIC (Ab 8990 (COL^R)): 128 µg/mL (≈ 46.3 µM) | MIC (Ab AB5075): 4 µg/mL (≈ 1.45 µM) | MIC (Pa 27853): 2 µg/mL (≈ 0.724 µM) | MIC (Pa LES431): 2 µg/mL (≈ 0.724 µM) | MIC (Pa PAO1; PAO1): 2 µg/mL (≈ 0.724 µM) | MIC (Kp 10031): 4 µg/mL (≈ 1.45 µM) | MIC (Kp 43816): 4 µg/mL (≈ 1.45 µM) | MIC (Kp 6951 (COL^R)): 16 µg/mL (≈ 5.79 µM) | MIC (Sa RN): >128 µg/mL | % Survival (IP, QD) (E. coli 25922): 67%
